# Where two headings read alike, the source gives them in different places.
# Tests used:
# Format in all cases: cell-based
# C. perfringens = C. perfringens MMX 8351 ATCC 13124
# E. lenta = assay: Broth microdilution MIC, E. lenta (Table 7); conditions: E. lenta MMX 1287 ATCC 43055
# P. anaerobius = assay: Broth microdilution MIC, P. anaerobius (Table 7); conditions: P. anaerobius MMX 1208 ATCC 27337
# S. epidermidis (CoNS) = assay: Broth microdilution MIC, S. epidermidis (CoNS) (Table 7)
# Clostridium difficile = assay: Broth microdilution MIC, C. difficile, anaerobic, supplemented Brucella Broth (Example 11, Table 7)
# Staphylococcus aureus = assay: microbe, parasite or virus in culture; conditions: for MIC: Staphylococcus aureus
# S. haemolyticus (CoNS) = assay: Broth microdilution MIC, S. haemolyticus (CoNS) (Table 7); conditions: S. haemolyticus (CoNS) MMX 529 ATCC 29970
# P. micros = assay: Broth microdilution MIC, P. micros (Table 7); conditions: P. micros MMX 3546
# S. lugdenensis (CoNS) = assay: Broth microdilution MIC, S. lugdenensis (CoNS) (Table 7); conditions: S. lugdenensis (CoNS) MMX 8724
# P. acnes = assay: Broth microdilution MIC, P. acnes (Table 7)
# Enterococci = system: Enterococci
# S. hominis (CoNS) = assay: Broth microdilution MIC, S. hominis (CoNS) (Table 7); conditions: S. hominis (CoNS) MMX 667 ATCC 27844
# Streptococci = assay: Broth microdilution MIC, Streptococci (Example 11, Table 7)
smiles,measurement,setting,value
CN(C)c1cc(NC(=O)CNC(C)(C)C)c(O)c2c1C[C@H]1C[C@H]3[C@H](N(C)C)C(O)=C(C(N)=O)C(=O)[C@@]3(O)C(O)=C1C2=O [Tigecycline],MIC,C. perfringens,0.12 µg/mL
same,MIC,E. lenta,0.25 µg/mL
same,MIC,P. anaerobius,0.03 µg/mL
same,MIC,"S. epidermidis (CoNS); S. epidermidis (CoNS) MMX 762, MRSE",0.06 µg/mL
same,MIC,"S. epidermidis (CoNS); S. epidermidis (CoNS) MMX 5145, MRSE",0.12 µg/mL
same,MIC,"Clostridium difficile; C. difficile MMX 4381 ATCC 700057, toxinAB-negative",0.18 µg/mL
same,MIC,"Clostridium difficile; C. difficile MMX 4994 ATCC BAA-1805, ribotype 027",0.03 µg/mL
same,MIC,"Clostridium difficile; C. difficile MMX 5668 ATCC BAA-1870, NAP1/027",0.03 µg/mL
same,RV40 activity as compared to Comparator,"Staphylococcus aureus; MRSA strains (Table 5), […]",16 ×
same,MIC,"Staphylococcus aureus; ATCC 29213 / MSSA, S. aureus MMX 100 ATCC 29213, MSSA (quality control)",0.25 µg/mL
same,MIC,"Staphylococcus aureus; ATCC 33591 / MRSA, S. aureus MMX 5717 ATCC 33591, MRSA",0.25 µg/mL
same,MIC,"Staphylococcus aureus; ATCC BAA-1556 / MRSA, S. aureus MMX 4675 ATCC BAA-1556, MRSA",0.12 µg/mL
same,MIC,"Staphylococcus aureus; ATCC BAA-1756 / MRSA, S. aureus MMX 2011 ATCC BAA-1756, MRSA",0.12 µg/mL
same,MIC,"Staphylococcus aureus; MRSA, S. aureus MMX 2010, MRSA",0.09 µg/mL
same,MIC,"Staphylococcus aureus; MRSA, S. aureus MMX 3982, MRSA",0.185 µg/mL
same,MIC,"Staphylococcus aureus; MRSA, S. aureus MMX 5985, MRSA",0.185 µg/mL
same,MIC,"Staphylococcus aureus; MRSA, S. aureus MMX 5999, MRSA",0.12 µg/mL
same,MIC,"Staphylococcus aureus; MRSA, S. aureus MMX 7899, MRSA",0.12 µg/mL
same,MIC,"Staphylococcus aureus; MRSA, S. aureus MMX 7900, MRSA",0.185 µg/mL
same,MIC,"Staphylococcus aureus; MRSA, S. aureus MMX 7901, MRSA",0.12 µg/mL
same,MIC,"Staphylococcus aureus; MRSA, S. aureus MMX 7902, MRSA",0.12 µg/mL
same,MIC,"Staphylococcus aureus; MRSA, S. aureus MMX 7903, MRSA",0.12 µg/mL
same,MIC,"Staphylococcus aureus; MSSA, S. aureus MMX 2490, MSSA",0.12 µg/mL
same,MIC,"Staphylococcus aureus; MSSA, S. aureus MMX 7907, MSSA",0.12 µg/mL
same,MIC,"Staphylococcus aureus; MSSA, S. aureus MMX 7908, MSSA",0.12 µg/mL
same,MIC,"Staphylococcus aureus; S. aureus MMX 4665, hVISA",0.25 µg/mL
same,MIC,"Staphylococcus aureus; S. aureus MMX 5989, Mu3, hVISA",0.75 µg/mL
same,MIC,"Staphylococcus aureus; VISA, S. aureus MMX 1723, Mu50",0.5 µg/mL
same,MIC,"Staphylococcus aureus; VISA, S. aureus MMX 2124, VISA, DaptoNS",0.045 µg/mL
same,MIC,"Staphylococcus aureus; VISA, S. aureus MMX 4658, VISA",0.12 µg/mL
same,MIC,"Staphylococcus aureus; VISA, S. aureus MMX 4660, VISA",0.09 µg/mL
same,MIC,S. haemolyticus (CoNS),0.06 µg/mL
same,MIC,P. micros,0.015 µg/mL
same,MIC,S. lugdenensis (CoNS),0.06 µg/mL
same,MIC,P. acnes; P. acnes MMX 7942 ATCC 6919,0.03 µg/mL
same,MIC,P. acnes; P. acnes MMX 7946 ATCC 11827,0.03 µg/mL
same,MIC,"Enterococci; E. faecalis MMX 101 ATCC 29212, VSE",0.06 µg/mL
same,MIC,"Enterococci; E. faecalis MMX 1086, VanA VRE",0.12 µg/mL
same,MIC,Enterococci; E. faecalis MMX 4176,0.12 µg/mL
same,MIC,"Enterococci; E. faecium MMX 173, VanB VRE",0.06 µg/mL
same,MIC,"Enterococci; E. faecium MMX 851, VanA VRE",0.06 µg/mL
same,MIC,Enterococci; E. faecium MMX 4204,0.06 µg/mL
same,MIC,S. hominis (CoNS),0.12 µg/mL
same,MIC,Streptococci; S. agalactiae MMX 4088,0.03 µg/mL
same,MIC,"Streptococci; S. agalactiae MMX 4115, erm^R",0.03 µg/mL
same,MIC,Streptococci; S. anginosus (AGS) MMX 1201 ATCC 33397,0.008 µg/mL
same,MIC,Streptococci; S. constellatus (AGS) MMX 5677,0.03 µg/mL
same,MIC,Streptococci; S. dysgalactiae MMX 5121,0.06 µg/mL
same,MIC,Streptococci; S. dysgalactiae MMX 5123,0.015 µg/mL
same,MIC,Streptococci; S. dysgalactiae MMX 5124,0.12 µg/mL
same,MIC,Streptococci; S. mitis (MGS) MMX 5798,0.03 µg/mL
same,MIC,Streptococci; S. oralis (MGS) MMX 5821,0.06 µg/mL
same,MIC,"Streptococci; S. pneumoniae MMX 432, PRSP",0.03 µg/mL
same,MIC,Streptococci; S. pneumoniae MMX 747,0.03 µg/mL
same,MIC,"Streptococci; S. pneumoniae MMX 1195 ATCC 49619, PISP",0.06 µg/mL
same,MIC,Streptococci; S. pyogenes MMX 404 ATCC 19615,0.015 µg/mL
same,MIC,"Streptococci; S. pyogenes MMX 946, ermR",0.015 µg/mL
same,MIC,Streptococci; S. pyogenes MMX 8778,0.03 µg/mL

# From patent US20200368312A1 (priority 2017, published 2020)
